According to ChEMBL document CHEMBL1201862, “PubChem BioAssay data set” (2004):
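These data come from cells grown in 96-well plates and exposed to compound for 48 hours at five concentrations. GI50 = concentration required for 50% inhibition of growth.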 Activity calls are given as the source filed them. No stated cut-off is given here; in the data, active = GI50 up to about 1.1 µM and inactive = higher. Where a SMILES comes first, the peptide text is derived from it. The star is where a group is joined. X33 = O=C(c1ccc(-c2ccc(Cl)cc2Cl)o1)*

How the values were obtained:
Test in all cases: DTP human tumour cell line panel, 48 h
LOX IMVI = tested on: LOX IMVI
OVCAR-8 = tested on: OVCAR-8
NCI-H226 = tested on: NCI-H226
CCRF-CEM = tested on: CCRF-CEM
UACC-257 = tested on: UACC-257
PC-3 = tested on: PC-3
K562 = tested on: K562
TK-10 = tested on: TK-10
MCF7 = tested on: MCF7
SK-OV-3 = tested on: SK-OV-3
SK-MEL-5 = tested on: SK-MEL-5
ACHN = tested on: ACHN
HT-29 = tested on: HT-29
SF-539 = tested on: SF-539
T47D = tested on: T47D
BT-549 = tested on: BT-549
HCT-116 = tested on: HCT-116
EKVX = tested on: EKVX
OVCAR-3 = tested on: OVCAR-3
SF-295 = tested on: SF-295

Structure (SMILES) | GI50 (LOX IMVI) | GI50 (OVCAR-8) | GI50 (NCI-H226) | GI50 (CCRF-CEM) | GI50 (UACC-257) | GI50 (PC-3) | GI50 (K562) | GI50 (TK-10) | GI50 (MCF7) | GI50 (SK-OV-3) | GI50 (SK-MEL-5) | GI50 (ACHN) | GI50 (HT-29) | GI50 (SF-539) | GI50 (T47D) | GI50 (BT-549) | GI50 (HCT-116) | GI50 (EKVX) | GI50 (OVCAR-3) | GI50 (SF-295)
COc1cc2c(cc1OC)C(N)CC2=O (stereo not given) | > 100 µM (inactive) | > 100 µM (inactive) | 9.06 µM (inactive) | > 100 µM (inactive) | > 100 µM (inactive) | > 100 µM (inactive) | > 100 µM (inactive) | > 100 µM (inactive) | > 100 µM (inactive) | > 100 µM (inactive) | > 100 µM (inactive) | > 100 µM (inactive) | > 100 µM (inactive) | > 100 µM (inactive) | > 100 µM (inactive) | > 100 µM (inactive) | > 100 µM (inactive) | > 100 µM (inactive) | > 100 µM (inactive) | > 100 µM (inactive)
COC(=O)/C=C(\S/C(=C(/c1ccccc1)n1cc(C(=O)OC)c(C(=O)OC)n1)c1ccccc1)C(=O)OC | 8.17 µM (inactive) | 2 µM (inactive) | 89.1 µM (inactive) | 3.12 µM (inactive) | 7.33 µM (inactive) | 16.4 µM (inactive) | 3.54 µM (inactive) | 2.86 µM (inactive) | 5.26 µM (inactive) | > 100 µM (inactive) | 19.3 µM (inactive) | 3.29 µM (inactive) | 3.33 µM (inactive) | 15.8 µM (inactive) | 3.27 µM (inactive) | 38.5 µM (inactive) | 12.1 µM (inactive) | 18.2 µM (inactive) | 3.27 µM (inactive) | 53.8 µM (inactive)
O=S1(=O)c2ccccc2N2C(c3ccccc3)=NOC2(c2ccccc2)CC1c1ccc(Br)cc1 (stereo not given) | > 100 µM (inactive) | > 100 µM (inactive) | > 100 µM (inactive) | > 100 µM (inactive) | > 100 µM (inactive) | > 100 µM (inactive) | > 100 µM (inactive) | > 100 µM (inactive) | > 100 µM (inactive) | > 100 µM (inactive) | > 100 µM (inactive) | > 100 µM (inactive) | > 100 µM (inactive) | > 100 µM (inactive) | > 100 µM (inactive) | > 100 µM (inactive) | > 100 µM (inactive) | > 100 µM (inactive) | > 100 µM (inactive) | > 100 µM (inactive)
CN(C)c1ccc(C=C2C(=O)NC(=S)NC2=O)c2ccccc12 | 26.9 µM (inactive) | 27 µM (inactive) | > 100 µM (inactive) | 38.6 µM (inactive) | > 100 µM (inactive) | > 100 µM (inactive) | 40.9 µM (inactive) | > 100 µM (inactive) | 67.6 µM (inactive) | > 100 µM (inactive) | > 100 µM (inactive) | > 100 µM (inactive) | > 100 µM (inactive) | 36 µM (inactive) | > 100 µM (inactive) | 61 µM (inactive) | > 100 µM (inactive) | > 100 µM (inactive) | 50.9 µM (inactive) | > 100 µM (inactive)
CCN(CC)C(=O)Cn1c2ccccc2[n+]2cc(N)ccc12 | > 100 µM (inactive) | > 100 µM (inactive) | > 100 µM (inactive) | > 100 µM (inactive) | > 100 µM (inactive) | > 100 µM (inactive) | > 100 µM (inactive) | > 100 µM (inactive) | > 100 µM (inactive) | > 100 µM (inactive) | > 100 µM (inactive) | > 100 µM (inactive) | > 100 µM (inactive) | > 100 µM (inactive) | > 100 µM (inactive) | > 100 µM (inactive) | > 100 µM (inactive) | > 100 µM (inactive) | > 100 µM (inactive) | > 100 µM (inactive)
COC(=O)CCCC(=O)/C(=N\Nc1ccc(Cl)cc1)Nc1c(Cl)cccc1Cl | 64.1 µM (inactive) | > 100 µM (inactive) | 45.2 µM (inactive) | 26.2 µM (inactive) | 59 µM (inactive) | 24 µM (inactive) | 48.1 µM (inactive) | > 74.1 µM (inactive) | 53.8 µM (inactive) | > 100 µM (inactive) | 32.8 µM (inactive) | > 87.9 µM (inactive) | 56.6 µM (inactive) | > 100 µM (inactive) | > 46.5 µM (inactive) | > 100 µM (inactive) | 38.9 µM (inactive) | 51.8 µM (inactive) | 55.5 µM (inactive) | 35.2 µM (inactive)
Cc1c(-c2nc(N)c(C#N)c(N)c2C#N)c(=O)oc2ccccc12 | 60.3 µM (inactive) | > 100 µM (inactive) | > 100 µM (inactive) | 69 µM (inactive) | > 100 µM (inactive) | 34.5 µM (inactive) | 59.4 µM (inactive) | > 100 µM (inactive) | 73.6 µM (inactive) | > 100 µM (inactive) | 87.5 µM (inactive) | > 100 µM (inactive) | 83 µM (inactive) | > 100 µM (inactive) | 89.5 µM (inactive) | > 100 µM (inactive) | 78.2 µM (inactive) | 68.1 µM (inactive) | > 100 µM (inactive) | 70 µM (inactive)
CCC(C)C(NC(=O)CNC(=O)C(Cc1ccccc1)NC(=O)C1CCCN1C(=O)c1ccc(-c2ccc(Cl)cc2Cl)o1)C(=O)OC (stereo not given) (X33-PFGI-OMe; configuration not given here) | 33.3 µM (inactive) | 27.4 µM (inactive) | > 100 µM (inactive) | 8.09 µM (inactive) | 16.8 µM (inactive) | 8 µM (inactive) | 22 µM (inactive) | 51.9 µM (inactive) | 20.8 µM (inactive) | 89.5 µM (inactive) | 12.2 µM (inactive) | 33.8 µM (inactive) | 15 µM (inactive) | 27.2 µM (inactive) | 25.3 µM (inactive) | 92.5 µM (inactive) | 13.6 µM (inactive) | 24.1 µM (inactive) | 23.5 µM (inactive) | 22 µM (inactive)
OC1C2CCCCN2C[C@@H](O)[C@H]1O (stereo not given in full) | > 100 µM (inactive) | > 100 µM (inactive) | > 100 µM (inactive) | > 100 µM (inactive) | > 100 µM (inactive) | > 100 µM (inactive) | > 100 µM (inactive) | > 100 µM (inactive) | > 100 µM (inactive) | > 100 µM (inactive) | > 100 µM (inactive) | > 100 µM (inactive) | > 100 µM (inactive) | > 100 µM (inactive) | > 100 µM (inactive) | > 100 µM (inactive) | > 100 µM (inactive) | > 100 µM (inactive) | > 100 µM (inactive) | > 100 µM (inactive)
CCOC(=O)C1=C(C)C(C(=O)OC)/C(=C/c2cccc3cccnc23)C1=O (stereo not given) | > 10 µM (inactive) | > 10 µM (inactive) | > 10 µM (inactive) | > 10 µM (inactive) | > 10 µM (inactive) | > 10 µM (inactive) | > 10 µM (inactive) | > 10 µM (inactive) | 4.76 µM (inactive) | > 10 µM (inactive) | > 10 µM (inactive) | > 10 µM (inactive) | > 10 µM (inactive) | > 10 µM (inactive) | > 10 µM (inactive) | > 10 µM (inactive) | > 10 µM (inactive) | > 10 µM (inactive) | > 10 µM (inactive) | > 10 µM (inactive)
COC(=O)[C@@H]1C[C@]2(CC=C(C)C)c3ccccc3N(S(=O)(=O)c3ccccc3)[C@@H]2N1C(=O)OC | 21.5 µM (inactive) | 20.3 µM (inactive) | 19 µM (inactive) | 27.9 µM (inactive) | 10.7 µM (inactive) | 17 µM (inactive) | 9.55 µM (inactive) | 32 µM (inactive) | 8.87 µM (inactive) | 10.6 µM (inactive) | 11.6 µM (inactive) | 25.5 µM (inactive) | 23.5 µM (inactive) | 24.8 µM (inactive) | 5.94 µM (inactive) | 32.2 µM (inactive) | 20 µM (inactive) | 3.83 µM (inactive) | 19.4 µM (inactive) | 24.3 µM (inactive)
C/C(=N\Nc1nc2cc(C)ccc2s1)c1ccccn1 | 0.481 µM (active) | 0.18 µM (active) | 0.348 µM (active) | 0.149 µM (active) | 0.5 µM (active) | 0.593 µM (active) | 0.0948 µM (active) | 2.22 µM (inactive) | 0.119 µM (active) | 0.49 µM (active) | 0.404 µM (active) | 0.25 µM (active) | 0.121 µM (active) | 1.39 µM (inactive) | 0.589 µM (active) | 6.22 µM (inactive) | 0.213 µM (active) | 0.143 µM (active) | 0.441 µM (active) | 1.15 µM (inactive)
Cc1nc2c(o1)C(=O)c1ccccc1/C2=N\c1ccccc1 | 1.59 µM (inactive) | 2 µM (inactive) | 13.6 µM (inactive) | 4.04 µM (inactive) | 2.05 µM (inactive) | 2.03 µM (inactive) | 2.62 µM (inactive) | 20.7 µM (inactive) | 2.37 µM (inactive) | 17.4 µM (inactive) | 1.35 µM (inactive) | 3.18 µM (inactive) | 10.2 µM (inactive) | 2.9 µM (inactive) | 2.52 µM (inactive) | 1.68 µM (inactive) | 2.17 µM (inactive) | 5.78 µM (inactive) | 1.59 µM (inactive) | 4.53 µM (inactive)
CN(NC(=O)CCCl)C1=NCCN1 | > 100 µM (inactive) | > 100 µM (inactive) | > 100 µM (inactive) | > 100 µM (inactive) | > 100 µM (inactive) | > 100 µM (inactive) | > 100 µM (inactive) | > 100 µM (inactive) | > 100 µM (inactive) | > 100 µM (inactive) | > 100 µM (inactive) | > 100 µM (inactive) | > 100 µM (inactive) | > 100 µM (inactive) | > 100 µM (inactive) | > 100 µM (inactive) | > 100 µM (inactive) | > 100 µM (inactive) | > 100 µM (inactive) | > 100 µM (inactive)
